{"source": "the NIST ThermoML archive (doi:10.1016/j.jct.2014.08.005)", "key": {"[1]": {"details": "Liquid, Vibrating tube method"}, "[2]": {"assay": "wn = mass fraction of the nth substance listed", "details": "101 kPa, Liquid, Vibrating tube method"}}, "note": "± gives the expanded uncertainty stated by the source."}
{"molecule": "CC(O)COC(C)COC(C)CO", "note": "(configuration not stated) [2-[2-(2-hydroxypropoxy)propoxy]-1-propanol]", "values": [{"measurement": "mass density", "setting": "[1]; 293.15 K, 101 kPa", "result": "1017.5 ± 1", "unit": "kg/m3"}, {"measurement": "mass density", "setting": "[1]; 303.15 K, 101 kPa", "result": "1009.5 ± 1", "unit": "kg/m3"}, {"measurement": "mass density", "setting": "[1]; 313.15 K, 101 kPa", "result": "1001.5 ± 1", "unit": "kg/m3"}, {"measurement": "mass density", "setting": "[1]; 323.15 K, 101 kPa", "result": "993.4 ± 1", "unit": "kg/m3"}, {"measurement": "mass density", "setting": "[1]; 333.15 K, 101 kPa", "result": "985.2 ± 1", "unit": "kg/m3"}, {"measurement": "mass density", "setting": "[1]; 343.15 K, 101 kPa", "result": "976.9 ± 1", "unit": "kg/m3"}]}
{"molecule": "CC(O)COC(C)COC(C)CO", "note": "(configuration not stated) [2-[2-(2-hydroxypropoxy)propoxy]-1-propanol] + O", "values": [{"measurement": "mass density", "setting": "[2]; 293.15 K, w1 = 0.2", "result": "1019.4 ± 1", "unit": "kg/m3"}, {"measurement": "mass density", "setting": "[2]; 293.15 K, w1 = 0.4", "result": "1037.1 ± 1", "unit": "kg/m3"}, {"measurement": "mass density", "setting": "[2]; 293.15 K, w1 = 0.6", "result": "1041.1 ± 1", "unit": "kg/m3"}, {"measurement": "mass density", "setting": "[2]; 293.15 K, w1 = 0.8", "result": "1030.7 ± 1", "unit": "kg/m3"}, {"measurement": "mass density", "setting": "[2]; 293.15 K, w1 = 1", "result": "1017.5 ± 1", "unit": "kg/m3"}, {"measurement": "mass density", "setting": "[2]; 303.15 K, w1 = 0.2", "result": "1015.2 ± 1", "unit": "kg/m3"}, {"measurement": "mass density", "setting": "[2]; 303.15 K, w1 = 0.4", "result": "1030.1 ± 1", "unit": "kg/m3"}, {"measurement": "mass density", "setting": "[2]; 303.15 K, w1 = 0.6", "result": "1033.2 ± 1", "unit": "kg/m3"}, {"measurement": "mass density", "setting": "[2]; 303.15 K, w1 = 0.8", "result": "1023.1 ± 1", "unit": "kg/m3"}, {"measurement": "mass density", "setting": "[2]; 303.15 K, w1 = 1", "result": "1009.5 ± 1", "unit": "kg/m3"}, {"measurement": "mass density", "setting": "[2]; 313.15 K, w1 = 0.2", "result": "1010.2 ± 1", "unit": "kg/m3"}, {"measurement": "mass density", "setting": "[2]; 313.15 K, w1 = 0.4", "result": "1022.9 ± 1", "unit": "kg/m3"}, {"measurement": "mass density", "setting": "[2]; 313.15 K, w1 = 0.6", "result": "1025.2 ± 1", "unit": "kg/m3"}, {"measurement": "mass density", "setting": "[2]; 313.15 K, w1 = 0.8", "result": "1015.4 ± 1", "unit": "kg/m3"}, {"measurement": "mass density", "setting": "[2]; 313.15 K, w1 = 1", "result": "1001.5 ± 1", "unit": "kg/m3"}, {"measurement": "mass density", "setting": "[2]; 323.15 K, w1 = 0.2", "result": "1004.5 ± 1", "unit": "kg/m3"}, {"measurement": "mass density", "setting": "[2]; 323.15 K, w1 = 0.4", "result": "1015.5 ± 1", "unit": "kg/m3"}, {"measurement": "mass density", "setting": "[2]; 323.15 K, w1 = 0.6", "result": "1017.2 ± 1", "unit": "kg/m3"}, {"measurement": "mass density", "setting": "[2]; 323.15 K, w1 = 0.8", "result": "1007.6 ± 1", "unit": "kg/m3"}, {"measurement": "mass density", "setting": "[2]; 323.15 K, w1 = 1", "result": "993.4 ± 1", "unit": "kg/m3"}, {"measurement": "mass density", "setting": "[2]; 333.15 K, w1 = 0.2", "result": "998.4 ± 1", "unit": "kg/m3"}, {"measurement": "mass density", "setting": "[2]; 333.15 K, w1 = 0.4", "result": "1007.7 ± 1", "unit": "kg/m3"}, {"measurement": "mass density", "setting": "[2]; 333.15 K, w1 = 0.6", "result": "1008.7 ± 1", "unit": "kg/m3"}, {"measurement": "mass density", "setting": "[2]; 333.15 K, w1 = 0.8", "result": "999.5 ± 1", "unit": "kg/m3"}, {"measurement": "mass density", "setting": "[2]; 333.15 K, w1 = 1", "result": "985.2 ± 1", "unit": "kg/m3"}, {"measurement": "mass density", "setting": "[2]; 343.15 K, w1 = 0.2", "result": "991.6 ± 1", "unit": "kg/m3"}, {"measurement": "mass density", "setting": "[2]; 343.15 K, w1 = 0.4", "result": "999.6 ± 1", "unit": "kg/m3"}, {"measurement": "mass density", "setting": "[2]; 343.15 K, w1 = 0.6", "result": "1000.2 ± 1", "unit": "kg/m3"}, {"measurement": "mass density", "setting": "[2]; 343.15 K, w1 = 0.8", "result": "990.9 ± 1", "unit": "kg/m3"}, {"measurement": "mass density", "setting": "[2]; 343.15 K, w1 = 1", "result": "976.9 ± 1", "unit": "kg/m3"}]}
{"molecule": "OCCOCCOCCO", "note": "[triethylene glycol]", "values": [{"measurement": "mass density", "setting": "[1]; 293.15 K, 101.33 kPa", "result": "1124.7 ± 1", "unit": "kg/m3"}, {"measurement": "mass density", "setting": "[1]; 303.15 K, 101.33 kPa", "result": "1117 ± 1", "unit": "kg/m3"}, {"measurement": "mass density", "setting": "[1]; 313.15 K, 101.33 kPa", "result": "1109.2 ± 1", "unit": "kg/m3"}, {"measurement": "mass density", "setting": "[1]; 323.15 K, 101.33 kPa", "result": "1101.5 ± 1", "unit": "kg/m3"}, {"measurement": "mass density", "setting": "[1]; 333.15 K, 101.33 kPa", "result": "1093.7 ± 1", "unit": "kg/m3"}, {"measurement": "mass density", "setting": "[1]; 343.15 K, 101.33 kPa", "result": "1085.9 ± 1", "unit": "kg/m3"}]}
